# Assay results reported in PMC7113684 (Antiviral Research, 2017).
# Where a name gives a salt, the structure may show the parent alone.
# What was measured:
# SARS-CoV 3CL^pro = SARS-CoV 3CL^pro (Severe acute respiratory syndrome coronavirus, UniProt P0C6X7); conditions: cited from earlier work
# Huh-7 cells = conditions: human
# in vitro = conditions: human
SMILES,activity against SARS-CoV 3CL^pro (SARS-CoV 3CL^pro),decrease of viability of mock cells (Huh-7 cells) [%],CC50 (in vitro) [µM]
CCOC(=O)/C=C/[C@H](C[C@@H]1CCNC1=O)NC(=O)[C@@H](CC(=O)[C@@H](NC(=O)c1cc(C)on1)C(C)C)Cc1ccc(F)cc1 [AG7088],inactive,–,–
"Nc1ccn([C@@H]2O[C@H](CO)[C@@H](O)C2(F)F)c(=O)n1 [GEM, Gemcitabine hydrochloride]",–,≥ 20,> 100
